Laboratory results published in ChEMBL document CHEMBL3233003, “Chromodomain antagonists that target the polycomb-group methyllysine reader protein chromobox homolog 7 (CBX7)” (J Med Chem, 2014).
Starred links: 1 amine or outer side, 2 acyl side, 3 side chain; linkers in the order of their positions; H or OH if unused. Non-standard residues stand in square brackets, D forms with d. Residues, ends and D or L forms follow the SMILES beside them. *: point of attachment. Benzenesulfonyl(4-OMe) = COc1ccc(S(=O)(=O)*)cc1; Benzoyl(4-CO2Me) = COC(=O)c1ccc(C(=O)*)cc1; Benzoyl(4-COOH) = O=C(O)c1ccc(C(=O)*)cc1; Lys(Me3) = C[N+](C)(C)CCCC[C@H](N)C(=O)O; Ethylenediamine = C(CN[*:2])N[*:1]; Gly(cPent) = N[C@H](C(=O)O)C1CCCC1; Hydrocinnamoyl = O=C(CCc1ccccc1)*; NBnAla = C[C@H](NCc1ccccc1)C(=O)O; Ala(cPr) = N[C@@H](CC1CC1)C(=O)O; X3 = COC(=O)c1ccc(S(=O)(=O)*)cc1; 3Pal = N[C@@H](Cc1cccnc1)C(=O)O; X6 = O=C(O)c1ccc(S(=O)(=O)*)cc1; Cha = N[C@@H](CC1CCCCC1)C(=O)O; Gly(cPr) = N[C@H](C(=O)O)C1CC1; Phg = N[C@H](C(=O)O)c1ccccc1; Nicotinoyl = O=C(c1cccnc1)*; Tos = Cc1ccc(S(=O)(=O)*)cc1; NHCH(CH2OH)2 = OCC(CO)N*; Nle = CCCC[C@H](N)C(=O)O; X10 = O=C(Cc1ccccc1Br)*; X7 = O=S(=O)(c1cccnc1)*; Cbz = O=C(OCc1ccccc1)*; PhAc = O=C(Cc1ccccc1)*; Boc = CC(C)(C)OC(=O)*; Bz = O=C(c1ccccc1)*; NHCH2CH2OH = OCCN*; X8 = OCC1(N*)CCCC1; X4 = CC(C)C(CO)N*; X1 = CCCC(CO)N*; NHPr = CCCN*

target: T1, Chromobox protein homolog 7 (Homo sapiens, UniProt O95931); test: Displacement of FITC-labeled H3K27me3 from CBX7 (unknown origin) after 15 mins by fluorescence polarization assay
T1 sequence (O95931 whole entry): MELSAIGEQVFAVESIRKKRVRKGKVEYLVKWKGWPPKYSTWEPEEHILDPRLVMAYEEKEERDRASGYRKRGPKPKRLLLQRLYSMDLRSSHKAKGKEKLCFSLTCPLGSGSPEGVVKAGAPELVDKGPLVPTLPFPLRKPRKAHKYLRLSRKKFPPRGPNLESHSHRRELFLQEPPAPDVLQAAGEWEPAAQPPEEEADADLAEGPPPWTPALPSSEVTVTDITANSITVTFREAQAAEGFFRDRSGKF

SMILES | IC50
CC(=O)N[C@@H](Cc1ccccc1)C(=O)N[C@@H](C)C(=O)N[C@H](C(=O)N[C@@H](CCCC[N+](C)(C)C)C(=O)N[C@@H](CO)C(N)=O)[C@@H](C)O (Ac-FAT[Lys(Me3)]S-NH2) | 35 µM
CCCNC(=O)[C@H](CCCC[N+](C)(C)C)NC(=O)[C@H](CC(C)C)NC(=O)[C@H](C)NC(=O)[C@H](Cc1ccccc1)NC(C)=O (Ac-FAL[Lys(Me3)]-NHPr) | 102 µM
COC(=O)c1ccc(S(=O)(=O)N[C@@H](Cc2ccccc2)C(=O)N[C@@H](C)C(=O)N[C@@H](CC(C)C)C(=O)N[C@@H](CCCC[N+](C)(C)C)C(=O)N[C@@H](CO)C(N)=O)cc1 (X3-FAL[Lys(Me3)]S-NH2) | 57 µM
CC(=O)N[C@@H](Cc1ccccc1)C(=O)N[C@@H](C)C(=O)N[C@@H](CC(C)C)C(=O)N[C@@H](CCCC[N+](C)(C)C)C(=O)N[C@@H](CO)C(=O)O | 27 µM
CC(=O)N[C@@H](Cc1c[nH]c2ccccc12)C(=O)N[C@@H](C)C(=O)N[C@@H](CC(C)C)C(=O)N[C@@H](CCCC[N+](C)(C)C)C(=O)N[C@@H](CO)C(N)=O (Ac-WAL[Lys(Me3)]S-NH2) | 7.8 µM
CC(=O)N[C@@H](Cc1ccccc1)C(=O)N[C@@H](C)C(=O)N[C@@H](CC(C)C)C(=O)N[C@@H](CCCC[N+](C)(C)C)C(=O)O (Ac-FAL[Lys(Me3)]-OH) | 560 µM
CC(=O)N[C@@H](Cc1ccccc1)C(=O)N[C@@H](C)C(=O)N[C@@H](CC1CC1)C(=O)N[C@@H](CCCC[N+](C)(C)C)C(=O)N[C@@H](CO)C(N)=O (Ac-FA[Ala(cPr)][Lys(Me3)]S-NH2) | 11.2 µM
CC(=O)N[C@@H](Cc1ccccc1)C(=O)N[C@@H](C)C(=O)N[C@@H](Cc1c[nH]c2ccccc12)C(=O)N[C@@H](CCCC[N+](C)(C)C)C(=O)N[C@@H](CO)C(N)=O (Ac-FAW[Lys(Me3)]S-NH2) | 13 µM
CC[C@H](NC(=O)[C@H](Cc1ccccc1)NC(C)=O)C(=O)N[C@@H](CC(C)C)C(=O)N[C@@H](CCCC[N+](C)(C)C)C(=O)N[C@@H](CO)C(N)=O | 39 µM
CC(C)C[C@H](NC(=O)[C@H](C)NC(=O)Cc1ccccc1Br)C(=O)N[C@@H](CCCC[N+](C)(C)C)C(=O)N[C@@H](CO)C(N)=O (X10-AL[Lys(Me3)]S-NH2) | 89 µM
COC(=O)c1ccc(C(=O)N[C@@H](Cc2ccccc2)C(=O)N[C@@H](C)C(=O)N[C@@H](CC(C)C)C(=O)N[C@@H](CCCC[N+](C)(C)C)C(=O)N[C@@H](CO)C(N)=O)cc1 ({Benzoyl(4-CO2Me)}-FAL[Lys(Me3)]S-NH2) | 6.3 µM
CC(C)C[C@H](NC(=O)[C@H](C)NC(=O)[C@H](Cc1ccccc1)NC(=O)c1ccccc1)C(=O)N[C@@H](CCCC[N+](C)(C)C)C(=O)N[C@@H](CO)C(N)=O (Bz-FAL[Lys(Me3)]S-NH2) | 8.8 µM
CC(=O)N[C@@H](Cc1ccccc1)C(=O)N[C@@H](C)C(=O)N[C@@H](CC(C)C)C(=O)N[C@@H](CCCC[N+](C)(C)C)C(=O)NC1(CO)CCCC1 (Ac-FAL[Lys(Me3)]-X8) | > 250 µM
CC(=O)N[C@@H](Cc1ccccc1)C(=O)N[C@@H](C)C(=O)N[C@H](C(=O)N[C@@H](CCCC[N+](C)(C)C)C(=O)N[C@@H](CO)C(N)=O)C1CCCC1 (Ac-FA[Gly(cPent)][Lys(Me3)]S-NH2) | 6 µM
CC(=O)N[C@@H](Cc1ccccc1)C(=O)N[C@@H](C)C(=O)N[C@@H](CC(C)C)C(=O)N[C@@H](CCCC[N+](C)(C)C)C(=O)N[C@H](CO)C(=O)O | 79 µM
CC(C)C[C@H](NC(=O)[C@H](C)NC(=O)CCc1ccccc1)C(=O)N[C@@H](CCCC[N+](C)(C)C)C(=O)N[C@@H](CO)C(N)=O (Hydrocinnamoyl-AL[Lys(Me3)]S-NH2) | 26 µM
CCCC(CO)NC(=O)[C@H](CCCC[N+](C)(C)C)NC(=O)[C@H](CC(C)C)NC(=O)[C@H](C)NC(=O)[C@H](Cc1ccccc1)NC(C)=O (some centres undefined) (Ac-FAL[Lys(Me3)]-X1) | > 500 µM
CC(=O)N[C@@H](Cc1ccccc1)C(=O)N[C@@H](C)C(=O)N[C@@H](Cc1cccnc1)C(=O)N[C@@H](CCCC[N+](C)(C)C)C(=O)N[C@@H](CO)C(N)=O (Ac-FA[3Pal][Lys(Me3)]S-NH2) | 11 µM
COc1ccc(S(=O)(=O)N[C@@H](C)C(=O)N[C@@H](CC(C)C)C(=O)N[C@@H](CCCC[N+](C)(C)C)C(=O)N[C@@H](CO)C(N)=O)cc1 ({Benzenesulfonyl(4-OMe)}-AL[Lys(Me3)]S-NH2) | > 250 µM
CC(=O)N[C@@H](Cc1ccccc1)C(=O)N[C@@H](C)C(=O)N[C@@H](CC1CCCCC1)C(=O)N[C@@H](CCCC[N+](C)(C)C)C(=O)N[C@@H](CO)C(N)=O (Ac-FA[Cha][Lys(Me3)]S-NH2) | 8.8 µM
CC(C)C[C@H](NC(=O)[C@H](C)NS(=O)(=O)c1cccnc1)C(=O)N[C@@H](CCCC[N+](C)(C)C)C(=O)N[C@@H](CO)C(N)=O (X7-AL[Lys(Me3)]S-NH2) | > 250 µM
CCCC[C@H](NC(=O)[C@H](Cc1ccccc1)NC(C)=O)C(=O)N[C@@H](CC(C)C)C(=O)N[C@@H](CCCC[N+](C)(C)C)C(=O)N[C@@H](CO)C(N)=O (Ac-F[Nle]L[Lys(Me3)]S-NH2) | 120 µM

SMILES | IC50
CC(C)C[C@H](NC(=O)[C@H](C)NC(=O)[C@H](Cc1ccccc1)NC(=O)c1ccc(C(=O)O)cc1)C(=O)N[C@@H](CCCC[N+](C)(C)C)C(=O)N[C@@H](CO)C(N)=O ({Benzoyl(4-COOH)}-FAL[Lys(Me3)]S-NH2) | 6.2 µM
CC(=O)N[C@@H](Cc1ccccc1)C(=O)N[C@@H](C)C(=O)N[C@H](C(=O)N[C@@H](CCCC[N+](C)(C)C)C(=O)N[C@@H](CO)C(N)=O)C1CC1 (Ac-FA[Gly(cPr)][Lys(Me3)]S-NH2) | 21 µM
CC(C)C[C@H](NC(=O)[C@H](C)NCc1ccccc1)C(=O)N[C@@H](CCCC[N+](C)(C)C)C(=O)N[C@@H](CO)C(N)=O (H-[NBnAla]L[Lys(Me3)]S-NH2) | > 2000 µM
CC(C)C[C@H](NC(=O)[C@H](C)NC(=O)CNS(=O)(=O)c1ccc(C(=O)O)cc1)C(=O)N[C@@H](CCCC[N+](C)(C)C)C(=O)N[C@@H](CO)C(N)=O (X6-GAL[Lys(Me3)]S-NH2) | 53 µM
CSCC[C@H](NC(=O)[C@H](C)NC(=O)[C@H](Cc1ccccc1)NC(C)=O)C(=O)N[C@@H](CCCC[N+](C)(C)C)C(=O)N[C@@H](CO)C(N)=O (Ac-FAM[Lys(Me3)]S-NH2) | 62 µM
CC(=O)N[C@@H](Cc1ccccc1)C(=O)N[C@@H](C)C(=O)N[C@@H](CC(C)C)C(=O)N[C@@H](CCCC[N+](C)(C)C)C(=O)NC(CO)C(C)C (some centres undefined) (Ac-FAL[Lys(Me3)]-X4) | > 250 µM
CC(C)C[C@H](NC(=O)[C@H](C)NC(=O)c1cccnc1)C(=O)N[C@@H](CCCC[N+](C)(C)C)C(=O)N[C@@H](CO)C(N)=O (Nicotinoyl-AL[Lys(Me3)]S-NH2) | 91 µM
CC(C)C[C@H](NC(=O)[C@H](C)NC(=O)OCc1ccccc1)C(=O)N[C@@H](CCCC[N+](C)(C)C)C(=O)N[C@@H](CO)C(N)=O (Cbz-AL[Lys(Me3)]S-NH2) | 58 µM
CC(=O)N[C@H](C(=O)N[C@@H](C)C(=O)N[C@@H](CC(C)C)C(=O)N[C@@H](CCCC[N+](C)(C)C)C(=O)N[C@@H](CO)C(N)=O)c1ccccc1 (Ac-[Phg]AL[Lys(Me3)]S-NH2) | 26 µM
CCCC[C@H](NC(=O)[C@H](C)NC(=O)[C@H](Cc1ccccc1)NC(C)=O)C(=O)N[C@@H](CCCC[N+](C)(C)C)C(=O)N[C@@H](CO)C(N)=O (Ac-FA[Nle][Lys(Me3)]S-NH2) | 23 µM
CC(C)C[C@H](NC(=O)[C@H](C)NC(=O)CNC(=O)Cc1ccccc1)C(=O)N[C@@H](CCCC[N+](C)(C)C)C(=O)N[C@@H](CO)C(N)=O (PhAc-GAL[Lys(Me3)]S-NH2) | 100 µM
CC[C@H](C)[C@H](NC(=O)[C@H](C)NC(=O)[C@H](Cc1ccccc1)NC(C)=O)C(=O)N[C@@H](CCCC[N+](C)(C)C)C(=O)N[C@@H](CO)C(N)=O (Ac-FAI[Lys(Me3)]S-NH2) | 5.7 µM
CC(C)C[C@H](NC(=O)[C@H](C)NC(=O)Cc1ccccc1)C(=O)N[C@@H](CCCC[N+](C)(C)C)C(=O)N[C@@H](CO)C(N)=O (PhAc-AL[Lys(Me3)]S-NH2) | 23 µM
CC(=O)N[C@@H](Cc1ccccc1)C(=O)N[C@@H](C)C(=O)N[C@@H](CC(C)C)C(=O)N[C@@H](CCCC[N+](C)(C)C)C(=O)NC(CO)CO (Ac-FAL[Lys(Me3)]-{NHCH(CH2OH)2}) | 23 µM
Cc1ccc(S(=O)(=O)N[C@@H](Cc2ccccc2)C(=O)N[C@@H](C)C(=O)N[C@@H](CC(C)C)C(=O)N[C@@H](CCCC[N+](C)(C)C)C(=O)N[C@@H](CO)C(N)=O)cc1 (Tos-FAL[Lys(Me3)]S-NH2) | > 250 µM
CC(C)C[C@H](NC(=O)[C@H](C)NCc1ccc(C(=O)O)cc1)C(=O)N[C@@H](CCCC[N+](C)(C)C)C(=O)N[C@@H](CO)C(N)=O | > 2000 µM
CC(=O)N[C@@H](Cc1ccccc1)C(=O)N[C@@H](C)C(=O)N[C@@H](CC(C)C)C(=O)N[C@@H](CCCC[N+](C)(C)C)C(=O)NCCO (Ac-FAL[Lys(Me3)]-NHCH2CH2OH) | 26 µM
CC(=O)N[C@@H](Cc1ccccc1)C(=O)N[C@@H](C)C(=O)N[C@@H](CC(C)C)C(=O)N[C@@H](CCCC[N+](C)(C)C)C(=O)NCCNC(=O)OC(C)(C)C (Ac-FAL[Lys(Me3)]-{Ethylenediamine-Boc}) | 105 µM
CC(=O)N[C@@H](Cc1ccccc1)C(=O)N[C@@H](C)C(=O)N[C@H](C(=O)N[C@@H](CCCC[N+](C)(C)C)C(=O)N[C@@H](CO)C(N)=O)C(C)C (Ac-FAV[Lys(Me3)]S-NH2) | 6.8 µM
CC(=O)N[C@@H](Cc1ccccc1)C(=O)N[C@@H](C)C(=O)N[C@@H](CC(C)C)C(=O)N[C@@H](CCCC[N+](C)(C)C)C(=O)NCCN (Ac-FAL[Lys(Me3)]-Ethylenediamine) | 22 µM
CC(C)C[C@H](NC(=O)[C@H](C)NC(=O)c1ccccc1)C(=O)N[C@@H](CCCC[N+](C)(C)C)C(=O)N[C@@H](CO)C(N)=O (Bz-AL[Lys(Me3)]S-NH2) | 57 µM
CC(=O)N[C@@H](Cc1ccccc1)C(=O)N[C@@H](C)C(=O)N[C@@H](Cc1ccccc1)C(=O)N[C@@H](CCCC[N+](C)(C)C)C(=O)N[C@@H](CO)C(N)=O (Ac-FAF[Lys(Me3)]S-NH2) | 10.3 µM
